# Laboratory results reported in US4248887A, “Antibacterial compounds, processes for their preparation and compositions containing them” (priority 1978, dated 1981).
# Where two headings read alike, the source gives them in different places.
# What was measured:
# M. suipneumoniae Str. 11 = experiment: Anti-mycoplasma MIC; type: cell-based; details: Mesomycoplasma hyopneumoniae; M. suipneumoniae Str. 11; Broth (Friis' broth, microtiter method); read-out: MIC
# [1] = tested on: M. suipneumoniae J2206/183b; experiment: Anti-mycoplasma MIC; type: cell-based; details: Mesomycoplasma hyopneumoniae
# M. dispar H225 = experiment: Anti-mycoplasma MIC; type: cell-based; details: M. dispar H225; Broth (Friis' broth, microtiter method); read-out: MIC
# M. dispar NCTC 10125 = experiment: Anti-mycoplasma MIC; type: cell-based; details: M. dispar NCTC 10125; Broth (Friis' broth, microtiter method); read-out: MIC
# M. pneumoniae 427a = experiment: Anti-mycoplasma MIC; type: cell-based; details: Mycoplasmoides pneumoniae, read-out: MIC
# M. pneumoniae ATCC 15492 = experiment: Anti-mycoplasma MIC; type: cell-based; details: Mycoplasmoides pneumoniae, ATCC15492, M. pneumoniae ATCC 15492, read-out: MIC
# M. bovis ATCC 25025 = experiment: microbe, parasite or virus in culture; type: cell-based; details: ATCC25025
# M. bovis NCTC 10131 = experiment: microbe, parasite or virus in culture; type: cell-based; details: NCTC10131
# M. fermentans MWKL4 = experiment: Anti-mycoplasma MIC; type: cell-based; details: Mycoplasmopsis fermentans, read-out: MIC
# M. pulmonis JB = experiment: Anti-mycoplasma MIC; type: cell-based; details: Mycoplasmopsis pulmonis, read-out: MIC
# M. hyorhinis ATCC 23234 = experiment: Anti-mycoplasma MIC; type: cell-based; details: Mesomycoplasma hyorhinis, ATCC23234; M. hyorhinis ATCC 23234; Agar (serial dilution in Friis' agar); read-out: MIC
# [2] = tested on: M. hyosynoviae ATCC 25591; experiment: Anti-mycoplasma MIC; type: cell-based; details: M. hyosynoviae ATCC 25591; Agar (serial dilution in Friis' agar); read-out: MIC
# [3] = tested on: M. arthritidis ATCC 14124; experiment: Anti-mycoplasma MIC; type: cell-based; details: M. arthritidis ATCC 14124; Agar (serial dilution in Friis' agar); read-out: MIC
# M. gallisepticum S6 = experiment: Anti-mycoplasma MIC; type: cell-based; details: Mycoplasmoides gallisepticum; M. gallisepticum S6; Agar (serial dilution in Friis' agar); read-out: MIC
# M. synoviae ATCC 25204 = experiment: Anti-mycoplasma MIC; type: cell-based; details: Mycoplasmopsis synoviae, ATCC25204; M. synoviae ATCC 25204; Agar (serial dilution in Friis' agar); read-out: MIC
# [4] = tested on: M. alkalescens NCTC 10135; experiment: Anti-mycoplasma MIC; type: cell-based; details: M. alkalescens NCTC 10135; Agar (serial dilution in Friis' agar); read-out: MIC
# [5] = tested on: M. bovigenitalium ATCC 14173; experiment: Anti-mycoplasma MIC; type: cell-based; details: M. bovigenitalium ATCC 14173; Agar (serial dilution in Friis' agar); read-out: MIC
# Bord. bronchiseptica BO8 = experiment: MIC against veterinary bacteria; details: Bordetella bronchiseptica
# Bord. bronchiseptica BO9 = experiment: MIC against veterinary bacteria; details: Bordetella bronchiseptica
# Past. multocida PA1 = experiment: MIC against veterinary bacteria; details: Pasteurella multocida
# Past. multocida PA2 = experiment: MIC against veterinary bacteria; details: Pasteurella multocida
# Past. haemolytica PA5 = experiment: MIC against veterinary bacteria; details: Mannheimia haemolytica
# [6] = tested on: Staph. aureus B4 (pen resistant); experiment: MIC against veterinary bacteria; details: Staphylococcus aureus
# [7] = tested on: Staph. aureus 152 (pen sensitive); experiment: MIC against veterinary bacteria; details: Staphylococcus aureus
# Strep. uberis SPU1 = experiment: MIC against veterinary bacteria; details: Streptococcus uberis
# Strep. dysgalactiae SPD1 = experiment: MIC against veterinary bacteria; details: Streptococcus dysgalactiae
# Strep. agalactiae SPA1 = experiment: MIC against veterinary bacteria; details: Streptococcus agalactiae
# Past. multocida 1633 = experiment: MIC by serial dilution in nutrient agar (human bacteria); details: Pasteurella multocida
# H. influenzae Q1 = experiment: as above; details: Haemophilus influenzae
# N. catarrhalis 1502 = experiment: as above; details: Neisseria
# B. subtilis = experiment: as above; details: Bacillus subtilis
# Staph. aureus Oxford = experiment: as above; details: Staphylococcus aureus
# Staph. aureus Russell = experiment: as above; details: Staphylococcus aureus
# Strep. pyogenes A 64/848 = experiment: as above; details: Streptococcus pyogenes, A64/848
# Strep. pyogenes B 2788 = experiment: as above; details: Streptococcus pyogenes, B2788
# Strep. pyogenes C 2761 = experiment: as above; details: Streptococcus pyogenes, C2761
# Strep. pneumoniae CN33 = experiment: as above; details: Streptococcus pneumoniae
# H. influenzae Wy21 = experiment: as above; details: Haemophilus influenzae
# [8] = Agar (serial dilution in Friis' agar)
# [9] = Broth (Friis' broth, microtiter method)
structure (smiles),measurement,setting,value
"C=CCOC(=O)/C=C(\C)CC1OCC(C/C=C/C(C)C(C)O)C(O)C1O (stereo not drawn) [Allyl, Allyl Monate C]",MIC,M. suipneumoniae Str. 11,0.312 µg/mL
same,MIC,"[1]; M. suipneumoniae J2206/183b, Broth (Friis' broth, microtiter method), read-out: MIC",1.25 µg/mL
same,MIC,M. dispar H225,0.078 µg/mL
same,MIC,M. dispar NCTC 10125,0.156 µg/mL
same,MIC,M. pneumoniae 427a; [8],5 µg/mL
same,MIC,M. pneumoniae 427a; [9],10 µg/mL
same,MIC,M. pneumoniae ATCC 15492; [8],10 µg/mL
same,MIC,M. pneumoniae ATCC 15492; [9],10 µg/mL
same,MIC,M. bovis ATCC 25025,0.078 µg/mL
same,MIC,M. bovis NCTC 10131,0.078 µg/mL
same,MIC,M. fermentans MWKL4; [8],0.156 µg/mL
same,MIC,M. fermentans MWKL4; [9],0.039 µg/mL
same,MIC,M. pulmonis JB; [8],0.156 µg/mL
same,MIC,M. pulmonis JB; [9],0.039 µg/mL
same,MIC,M. hyorhinis ATCC 23234,2.5 µg/mL
same,MIC,[2],1.25 µg/mL
same,MIC,[3],> 10 µg/mL
same,MIC,M. gallisepticum S6,> 10 µg/mL
same,MIC,M. synoviae ATCC 25204,0.039 µg/mL
same,MIC,[4],0.078 µg/mL
same,MIC,[5],0.078 µg/mL
same,MIC,Bord. bronchiseptica BO8,> 80 µg/mL
same,MIC,Bord. bronchiseptica BO9,40 µg/mL
same,MIC,Past. multocida PA1,2.5 µg/mL
same,MIC,Past. multocida PA2,0.312 µg/mL
same,MIC,Past. haemolytica PA5,20 µg/mL
same,MIC,[6],0.625 µg/mL
same,MIC,[7],0.625 µg/mL
same,MIC,Strep. uberis SPU1,1.25 µg/mL
same,MIC,Strep. dysgalactiae SPD1,5 µg/mL
same,MIC,Strep. agalactiae SPA1,5 µg/mL
same,MIC,Past. multocida 1633,2.5 µg/mL
same,MIC,H. influenzae Q1,0.5 µg/mL
same,MIC,N. catarrhalis 1502,0.05 µg/mL
same,MIC,B. subtilis,1 µg/mL
same,MIC,Staph. aureus Oxford,0.1 µg/mL
same,MIC,Staph. aureus Russell,1 µg/mL
same,MIC,Strep. pyogenes A 64/848,2.5 µg/mL
same,MIC,Strep. pyogenes B 2788,2.5 µg/mL
same,MIC,Strep. pyogenes C 2761,10 µg/mL
same,MIC,Strep. pneumoniae CN33,2.5 µg/mL
"C/C(=C\C(=O)OCCCCCCO)CC1OCC(C/C=C/C(C)C(C)O)C(O)C1O (stereo not drawn) [6-Hydroxyhexyl, 6-Hydroxyhexyl Monate C]",MIC,M. suipneumoniae Str. 11,0.625 µg/mL
same,MIC,[1]; J2206/183B,1.25 µg/mL
same,MIC,M. dispar H225,0.156 µg/mL
same,MIC,M. dispar NCTC 10125,0.156 µg/mL
same,MIC,M. pneumoniae 427a; [8],1.25 µg/mL
same,MIC,M. pneumoniae 427a; [9],0.625 µg/mL
same,MIC,M. pneumoniae ATCC 15492; [8],1.25 µg/mL
same,MIC,M. pneumoniae ATCC 15492; [9],0.625 µg/mL
same,MIC,M. bovis ATCC 25025,< 0.02 µg/mL
same,MIC,M. bovis NCTC 10131,< 0.02 µg/mL
same,MIC,M. fermentans MWKL4; [8],0.078 µg/mL
same,MIC,M. fermentans MWKL4; [9],< 0.02 µg/mL
same,MIC,M. pulmonis JB; [8],0.039 µg/mL
same,MIC,M. pulmonis JB; [9],< 0.02 µg/mL
same,MIC,M. hyorhinis ATCC 23234,1.25 µg/mL
same,MIC,[2],0.078 µg/mL
same,MIC,[3],5 µg/mL
same,MIC,M. gallisepticum S6,10 µg/mL
same,MIC,M. synoviae ATCC 25204,< 0.02 µg/mL
same,MIC,[4],< 0.02 µg/mL
same,MIC,[5],0.039 µg/mL
same,MIC,Bord. bronchiseptica BO8,> 80 µg/mL
same,MIC,Bord. bronchiseptica BO9,5 µg/mL
same,MIC,Past. multocida PA1,2.5 µg/mL
same,MIC,Past. multocida PA2,2.5 µg/mL
same,MIC,Past. haemolytica PA5,40 µg/mL
same,MIC,[6],1.25 µg/mL
same,MIC,[7],1.25 µg/mL
same,MIC,Strep. uberis SPU1,0.312 µg/mL
same,MIC,Strep. dysgalactiae SPD1,1.25 µg/mL
same,MIC,Strep. agalactiae SPA1,5 µg/mL
same,MIC,Past. multocida 1633,1 µg/mL
same,MIC,H. influenzae Q1,0.2 µg/mL
same,MIC,H. influenzae Wy21,0.2 µg/mL
same,MIC,B. subtilis,0.5 µg/mL
same,MIC,Staph. aureus Oxford,0.2 µg/mL
same,MIC,Staph. aureus Russell,1 µg/mL
same,MIC,Strep. pyogenes A 64/848,1 µg/mL
same,MIC,Strep. pyogenes B 2788,5 µg/mL
same,MIC,Strep. pyogenes C 2761,5 µg/mL
